Experimental data taken from PubChem BioAssay AID652194 (Johns Hopkins Ion Channel Center, 2013).
Active and inactive are the calls of the source.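 The calls were made as follows: active = hERG flux cut by over 30% at some tested dose, with a fitted dose response curve; inactive = no hERG inhibition at any dose or no curve.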

The compounds below were run against Voltage-gated inwardly rectifying potassium channel KCNH2 (Homo sapiens) (UniProt Q12809) (assay: off-target hERG block by TASK1 inhibitor candidates – FluxOR thallium flux, concentration-response, CHO cells, selectivity assay for TASK1 inhibitor project, SAR follow-up (AID 652194)). Conditions: hERG-expressing cells, FluxOR thallium flux fluorescence.
Chain of Voltage-gated inwardly rectifying potassium channel KCNH2 (Homo sapiens) (Q12809 whole entry, looked up): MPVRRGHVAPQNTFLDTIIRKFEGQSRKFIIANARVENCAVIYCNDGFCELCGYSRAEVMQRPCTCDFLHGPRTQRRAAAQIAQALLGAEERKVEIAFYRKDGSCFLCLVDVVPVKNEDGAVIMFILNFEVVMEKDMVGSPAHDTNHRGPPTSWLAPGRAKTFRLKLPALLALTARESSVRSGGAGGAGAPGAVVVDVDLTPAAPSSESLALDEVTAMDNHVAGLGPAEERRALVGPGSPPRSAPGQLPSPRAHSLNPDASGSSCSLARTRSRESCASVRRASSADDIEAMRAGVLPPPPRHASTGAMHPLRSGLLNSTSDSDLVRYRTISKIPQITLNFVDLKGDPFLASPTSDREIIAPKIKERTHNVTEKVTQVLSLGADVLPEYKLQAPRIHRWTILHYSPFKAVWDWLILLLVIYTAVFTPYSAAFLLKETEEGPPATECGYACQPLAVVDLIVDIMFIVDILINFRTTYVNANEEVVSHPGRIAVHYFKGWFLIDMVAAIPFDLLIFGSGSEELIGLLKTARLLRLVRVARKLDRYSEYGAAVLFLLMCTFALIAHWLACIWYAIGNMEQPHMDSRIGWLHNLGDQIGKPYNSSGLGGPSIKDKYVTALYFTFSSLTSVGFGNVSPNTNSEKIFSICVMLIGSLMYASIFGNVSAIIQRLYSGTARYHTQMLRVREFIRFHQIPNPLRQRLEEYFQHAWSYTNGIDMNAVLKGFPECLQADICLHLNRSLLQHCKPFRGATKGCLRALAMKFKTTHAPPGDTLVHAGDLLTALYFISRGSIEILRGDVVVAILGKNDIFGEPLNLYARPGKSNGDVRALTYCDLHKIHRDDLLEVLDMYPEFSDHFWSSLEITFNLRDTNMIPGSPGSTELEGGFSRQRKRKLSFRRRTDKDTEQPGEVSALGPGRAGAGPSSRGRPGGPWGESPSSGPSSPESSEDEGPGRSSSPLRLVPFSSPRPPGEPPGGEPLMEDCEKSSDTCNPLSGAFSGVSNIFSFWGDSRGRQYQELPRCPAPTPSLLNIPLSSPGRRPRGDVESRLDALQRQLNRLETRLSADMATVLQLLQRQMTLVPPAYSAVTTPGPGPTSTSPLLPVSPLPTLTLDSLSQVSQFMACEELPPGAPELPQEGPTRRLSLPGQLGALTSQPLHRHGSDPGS
Work on `Cc1cccc(C(=O)Nc2cccc(NC(=O)c3cccc(C)c3)c2)c1` yielded an IC50 of 12.4 µM.

Same assay, conditions: hERG-expressing cells, FluxOR thallium flux fluorescence; at 30 µM (top of the series)
With `COc1ccccc1NC(=O)c1cccc(NC(=O)c2ccccc2OC)c1` the “flux ratio, lower = inhibition” value was “inactive”. In the case of `CCOc1ccccc1NC(=O)c1cccc(NC(=O)c2ccc(C(F)(F)F)cc2)c1`, the “flux ratio, lower = inhibition” value is reported as “inactive”. In the case of `Cc1ccc(C(=O)Nc2cccc(NC(=O)c3ccccc3)c2)cc1`, the “flux ratio, lower = inhibition” value is reported as “inactive”. `O=C(Nc1cccc(NC(=O)c2ccco2)c1)c1ccccc1` was tested, and the “flux ratio, lower = inhibition” value was “inactive”. In the case of `CCOc1ccccc1C(=O)Nc1cccc(NC(=O)c2ccccc2C(F)(F)F)c1`, the “flux ratio, lower = inhibition” value is reported as “inactive”. `COc1ccccc1C(=O)Nc1cccc(NC(=O)c2ccccc2C)c1` was tested, and the “flux ratio, lower = inhibition” value was “inactive”. For `Cc1cccc(C(=O)Nc2ccccc2C(=O)Nc2ccccc2)c1`, the “flux ratio, lower = inhibition” value was “inactive”. `O=C(Nc1cccc(NC(=O)c2ccccn2)c1)c1ccccc1` was tested, and the “flux ratio, lower = inhibition” value was “inactive”. For `O=C(Nc1ccccc1Cl)c1cccc(NC(=O)C2CCCC2)c1`, the “flux ratio, lower = inhibition” value was “inactive”. For `CCOc1ccccc1C(=O)Nc1cccc(NC(=O)c2ccccc2OC)c1`, the “flux ratio, lower = inhibition” value was “inactive”. With `CN(C)c1ccc(C(=O)Nc2cccc(NC(=O)c3ccccc3)c2)cc1` the “flux ratio, lower = inhibition” value was “inactive”. `CCOc1ccc(NC(=O)c2cccc(NC(=O)C3CCCC3)c2)cc1` was tested, and the “flux ratio, lower = inhibition” value was “inactive”. `Cc1cccc(C(=O)Nc2cccc(NC(=O)c3ccccc3)c2)c1` was tested, and the “flux ratio, lower = inhibition” value was “inactive”. In the case of `COc1ccccc1C(=O)Nc1cccc(NC(=O)c2cccc3ccccc23)c1`, the “flux ratio, lower = inhibition” value is reported as “inactive”. In the case of `COc1ccc(C(=O)Nc2cccc(NC(=O)c3ccccc3)c2)cc1`, the “flux ratio, lower = inhibition” value is reported as “inactive”. `CCOc1ccccc1NC(=O)c1cccc(NC(=O)CC2CCCC2)c1` was tested, and the “flux ratio, lower = inhibition” value was “inactive”. For `Cc1cccc(C(=O)Nc2cccc(NC(=O)c3ccccc3Cl)c2)c1`, the “flux ratio, lower = inhibition” value was “inactive”. `O=C(Nc1cccc(NC(=O)c2ccsc2)c1)c1ccccc1` was tested, and the “flux ratio, lower = inhibition” value was “inactive”. In the case of `CCOc1ccccc1NC(=O)c1cccc(NC(=O)C2CCCO2)c1` (stereo not given), the “flux ratio, lower = inhibition” value is reported as “inactive”. With `CCOc1ccccc1NC(=O)c1cccc(NC(=O)c2cccc(OC)c2)c1` the “flux ratio, lower = inhibition” value was “inactive”. `CCOc1ccccc1NC(=O)c1cccc(NC(=O)C(C)(C)C)c1` was tested, and the “flux ratio, lower = inhibition” value was “inactive”. In the case of `Cc1cccc(C(=O)Nc2ccccc2NC(=O)c2ccccc2)c1`, the “flux ratio, lower = inhibition” value is reported as “inactive”. In the case of `Cc1cccc(S(=O)(=O)Nc2cccc(NC(=O)c3ccccc3)c2)c1`, the “flux ratio, lower = inhibition” value is reported as “inactive”. `O=C(Nc1cccc(NC(=O)c2ccccc2Cl)c1)c1ccccc1` was tested, and the “flux ratio, lower = inhibition” value was “inactive”. With `O=C(Nc1cccc(NC(=O)C2CCCCC2)c1)c1ccccc1` the “flux ratio, lower = inhibition” value was “inactive”. In the case of `O=C(Nc1cccc(NC(=O)c2ccccc2C(F)(F)F)c1)c1ccccc1`, the “flux ratio, lower = inhibition” value is reported as “inactive”. For `CCOc1ccccc1NC(=O)c1cccc(NC(=O)c2cccc(C(F)(F)F)c2)c1`, the “flux ratio, lower = inhibition” value was “inactive”. With `Cc1cccc(C(=O)Nc2cccc(NC(=O)c3cccc(F)c3)c2)c1` the “flux ratio, lower = inhibition” value was “inactive”. For `CCOc1ccccc1NC(=O)c1cccc(NC(=O)c2ccccc2C(F)(F)F)c1`, the “flux ratio, lower = inhibition” value was “inactive”. `Cc1cccc(C(=O)Nc2cccc(NC(=O)c3ccccc3C)c2)c1` was tested, and the “flux ratio, lower = inhibition” value was “inactive”. With `O=C(Nc1cccc(NC(=O)c2ccncc2)c1)c1ccccc1` the “flux ratio, lower = inhibition” value was “inactive”. With `O=C(Nc1cccc(NC(=O)c2cccnc2)c1)c1ccccc1` the “flux ratio, lower = inhibition” value was “inactive”. `COc1ccc(C(=O)Nc2cccc(NC(=O)c3cccc(C)c3)c2)cc1` was tested, and the “flux ratio, lower = inhibition” value was “inactive”. In the case of `CCOc1ccccc1NC(=O)c1cccc(NC(=O)C2CC2)c1`, the “flux ratio, lower = inhibition” value is reported as “inactive”. For `CCOc1ccccc1NC(=O)c1cccc(NC(=O)C2CCOC2)c1` (stereo not given), the “flux ratio, lower = inhibition” value was “inactive”. In the case of `CCOc1ccccc1NC(=O)c1cccc(NC(=O)c2ccccc2OC(F)(F)F)c1`, the “flux ratio, lower = inhibition” value is reported as “inactive”. `COc1ccccc1NC(=O)c1cccc(NC(=O)c2ccccc2)c1` was tested, and the “flux ratio, lower = inhibition” value was “inactive”. With `COc1cccc(C(=O)Nc2cccc(NC(=O)c3cccc(C)c3)c2)c1` the “flux ratio, lower = inhibition” value was “inactive”. `CCOc1ccccc1NC(=O)c1cccc(NC(=O)c2ccc(C)cc2)c1` was tested, and the “flux ratio, lower = inhibition” value was “inactive”. In the case of `CC(C)(C)c1ccc(C(=O)Nc2cccc(NC(=O)c3ccccc3)c2)cc1`, the “flux ratio, lower = inhibition” value is reported as “inactive”. `O=C(Nc1cccc(NC(=O)c2ccc(F)cc2)c1)c1ccccc1` was tested, and the “flux ratio, lower = inhibition” value was “inactive”. `CCOc1ccccc1NC(=O)c1cccc(C(=O)NC2CCCC2)c1` was tested, and the “flux ratio, lower = inhibition” value was “inactive”. With `O=C(Nc1cccc(NC(=O)c2ccoc2)c1)c1ccccc1` the “flux ratio, lower = inhibition” value was “inactive”. For `CCOc1ccccc1C(=O)Nc1cccc(NC(=O)C2CCCC2)c1`, the “flux ratio, lower = inhibition” value was “inactive”. For `Cc1cccc(C(=O)Nc2cccc(NC(=O)c3ccncc3)c2)c1`, the “flux ratio, lower = inhibition” value was “inactive”. In the case of `CC(C)c1ccccc1C(=O)Nc1cccc(NC(=O)c2ccccc2OC(F)(F)F)c1`, the “flux ratio, lower = inhibition” value is reported as “inactive”. With `CCOc1ccccc1NC(=O)c1cccc(NC(=O)c2cccc(Cl)c2)c1` the “flux ratio, lower = inhibition” value was “inactive”. In the case of `CCOc1ccccc1NC(=O)c1cccc(NC(=O)CC2CCCCC2)c1`, the “flux ratio, lower = inhibition” value is reported as “inactive”. For `CCOc1ccccc1NC(=O)c1cccc(NC(=O)c2cccc(C)c2)c1`, the “flux ratio, lower = inhibition” value was “inactive”. For `COc1cccc(C(=O)Nc2cccc(NC(=O)c3ccccc3)c2)c1`, the “flux ratio, lower = inhibition” value was “inactive”. For `COc1ccccc1C(=O)Nc1cccc(NC(=O)c2ccccc2OC(F)(F)F)c1`, the “flux ratio, lower = inhibition” value was “inactive”. For `CCOc1ccccc1NC(=O)c1cccc(NC(=O)C2CCCC2)c1`, the “flux ratio, lower = inhibition” value was “inactive”. For `O=C(Nc1cccc(NC(=O)c2cccc(F)c2)c1)c1ccccc1`, the “flux ratio, lower = inhibition” value was “inactive”. `Cc1cccc(C(=O)Nc2cccc(NC(=O)c3ccccc3OC(F)(F)F)c2)c1` was tested, and the “flux ratio, lower = inhibition” value was “inactive”. `COc1ccccc1C(=O)Nc1cc(NC(=O)c2ccccc2C(C)C)ccc1F` was tested, and the “flux ratio, lower = inhibition” value was “inactive”. In the case of `COc1ccccc1C(=O)Nc1cccc(NC(=O)c2cccc(C)c2)c1`, the “flux ratio, lower = inhibition” value is reported as “inactive”. With `Cc1cccc(NC(=O)c2cccc(NC(=O)c3ccccc3)c2)c1` the “flux ratio, lower = inhibition” value was “inactive”. For `Cc1cccc(C(=O)Nc2cccc(NC(=O)C3CCCCC3)c2)c1`, the “flux ratio, lower = inhibition” value was “inactive”. `COc1ccccc1NC(=O)c1cccc(NC(=O)CC2CCCC2)c1` was tested, and the “flux ratio, lower = inhibition” value was “inactive”. In the case of `COc1ccccc1C(=O)Nc1cccc(NC(=O)c2ccccc2)c1`, the “flux ratio, lower = inhibition” value is reported as “inactive”. With `Cc1cccc(C(=O)Nc2cccc(NC(=O)c3ccco3)c2)c1` the “flux ratio, lower = inhibition” value was “inactive”. With `Cc1ccccc1C(=O)Nc1cccc(NC(=O)c2ccccc2)c1` the “flux ratio, lower = inhibition” value was “inactive”. In the case of `CCOc1ccccc1C(=O)Nc1cccc(NC(=O)c2cccc(C)c2)c1`, the “flux ratio, lower = inhibition” value is reported as “inactive”. With `CCOc1ccccc1NC(=O)c1cccc(NC(=O)c2ccccc2OC)c1` the “flux ratio, lower = inhibition” value was “inactive”. With `COc1ccccc1NC(=O)c1cccc(NC(=O)c2ccccc2C(F)(F)F)c1` the “flux ratio, lower = inhibition” value was “inactive”. `CCOc1ccccc1NC(=O)c1cccc(NC(=O)c2ccc(OC)cc2)c1` was tested, and the “flux ratio, lower = inhibition” value was “inactive”. In the case of `COc1cccc(OC)c1C(=O)Nc1cccc(NC(=O)c2cccc(C)c2)c1`, the “flux ratio, lower = inhibition” value is reported as “inactive”. For `COc1ccccc1NC(=O)c1cccc(NC(=O)C2CCCCC2)c1`, the “flux ratio, lower = inhibition” value was “inactive”. For `COc1ccccc1C(=O)Nc1cc(NC(=O)c2cccc(C)c2)ccc1F`, the “flux ratio, lower = inhibition” value was “inactive”. `CCOc1ccccc1NC(=O)c1cccc(NC(=O)c2ccc(Cl)cc2)c1` was tested, and the “flux ratio, lower = inhibition” value was “inactive”. `Cc1cccc(C(=O)Nc2cccc(NC(=O)c3ccc(Cl)cc3)c2)c1` was tested, and the “flux ratio, lower = inhibition” value was “inactive”. For `Cc1cccc(C(=O)Nc2cccc(NC(=O)c3cccs3)c2)c1`, the “flux ratio, lower = inhibition” value was “inactive”. In the case of `O=C(Nc1cccc(NC(=O)c2ccc(C(F)(F)F)cc2)c1)c1ccccc1`, the “flux ratio, lower = inhibition” value is reported as “inactive”. `COc1ccc(F)cc1C(=O)Nc1cccc(NC(=O)c2cccc(C)c2)c1` was tested, and the “flux ratio, lower = inhibition” value was “inactive”. For `COc1ccccc1C(=O)Nc1cccc(NC(=O)c2ccccc2OC)c1`, the “flux ratio, lower = inhibition” value was “inactive”. For `CCOc1ccccc1NC(=O)c1cccc(NC(=O)C2CCCCC2)c1`, the “flux ratio, lower = inhibition” value was “inactive”. In the case of `CCOc1ccccc1NC(=O)c1cccc(NC(=O)c2ccccc2Cl)c1`, the “flux ratio, lower = inhibition” value is reported as “inactive”. `Cc1cccc(C(=O)Nc2cccc(NC(=O)c3ccc(C(F)(F)F)cc3)c2)c1` was tested, and the “flux ratio, lower = inhibition” value was “inactive”. With `O=C(Nc1cccc(NC(=O)c2ccc(Cl)cc2)c1)c1ccccc1` the “flux ratio, lower = inhibition” value was “inactive”. For `CCOc1ccccc1NC(=O)c1cccc(NC(=O)c2ccccc2C)c1`, the “flux ratio, lower = inhibition” value was “inactive”. In the case of `O=C(Nc1cccc(NC(=O)c2cccs2)c1)c1ccccc1`, the “flux ratio, lower = inhibition” value is reported as “inactive”. For `Cc1cccc(C(=O)Nc2cccc(C(=O)Nc3ccccc3)c2)c1`, the “flux ratio, lower = inhibition” value was “inactive”. For `O=C(Nc1cccc(NC(=O)c2cccc(Cl)c2)c1)c1ccccc1`, the “flux ratio, lower = inhibition” value was “inactive”. For `COc1ccccc1C(=O)Nc1cccc(NC(=O)c2ccccc2C(C)C)c1`, the “flux ratio, lower = inhibition” value was “inactive”. In the case of `COc1cnccc1C(=O)Nc1cccc(NC(=O)c2cccc(C)c2)c1`, the “flux ratio, lower = inhibition” value is reported as “inactive”. `Cc1cccc(C(=O)Nc2cccc(NC(=O)c3cccc(C(F)(F)F)c3)c2)c1` was tested, and the “flux ratio, lower = inhibition” value was “inactive”. For `O=C(Nc1cccc(NC(=O)c2cccc(C(F)(F)F)c2)c1)c1ccccc1`, the “flux ratio, lower = inhibition” value was “inactive”. In the case of `CC(C)Oc1ccccc1C(=O)Nc1cccc(NC(=O)c2ccccc2OC(F)(F)F)c1`, the “flux ratio, lower = inhibition” value is reported as “inactive”. For `Cc1cccc(C(=O)Nc2cccc(NC(=O)c3ccccc3OCC(C)C)c2)c1`, the “flux ratio, lower = inhibition” value was “inactive”. In the case of `CCOc1ccccc1NC(=O)c1cccc(NC(=O)c2ccccc2)c1`, the “flux ratio, lower = inhibition” value is reported as “inactive”. `Cc1cccc(NC(=O)c2ccccc2NC(=O)c2ccccc2)c1` was tested, and the “flux ratio, lower = inhibition” value was “inactive”. `Cc1cccc(C(=O)Nc2cccc(NC(=O)c3ccccc3C(F)(F)F)c2)c1` was tested, and the “flux ratio, lower = inhibition” value was “inactive”. `Cc1cccc(C(=O)Nc2cccc(NC(=O)c3ccccc3C(C)C)c2)c1` was tested, and the “flux ratio, lower = inhibition” value was “inactive”. `COc1c(F)cccc1C(=O)Nc1cccc(NC(=O)c2cccc(C)c2)c1` was tested, and the “flux ratio, lower = inhibition” value was “inactive”.
